For this test, the system named is P388 leukemia ip, CD2F1 mice, survival T/C. Put plainly: NCI In Vivo Anticancer Drug Screen. Data for tumor model P388 Leukemia (intraperitoneal) in CD2F1 (CDF1) mice. As to conditions: endpoint: median survival time, higher = longer survival. Summed up:
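Mice carrying the transplanted tumor received test compound or vehicle. Survival was recorded in each group, and the value is the treated-group measurement divided by that of the vehicle-treated control group.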

[1] abbreviates: dose: 12.5 mg/kg/injection, schedule: Q01DX005 (ip), vehicle: Klucel (hydroxypropylcellulose) (HPC).
Setting [2] is: dose: 25.0 mg/kg/injection, schedule: Q01DX005 (ip), vehicle: Klucel (hydroxypropylcellulose) (HPC).
The mark [3] stands for this setting: dose: 50.0 mg/kg/injection, schedule: Q01DX005 (ip), vehicle: Klucel (hydroxypropylcellulose) (HPC).
The mark [4] stands for this setting: dose: 100.0 mg/kg/injection, schedule: Q01DX005 (ip), vehicle: Klucel (hydroxypropylcellulose) (HPC).
[5] abbreviates: dose: 200.0 mg/kg/injection, schedule: Q01DX005 (ip), vehicle: Klucel (hydroxypropylcellulose) (HPC).
[6] abbreviates: dose: 100.0 mg/kg/injection, schedule: Q04DX003 (ip), vehicle: Klucel (hydroxypropylcellulose) (HPC).
Setting [7] is: dose: 200.0 mg/kg/injection, schedule: Q04DX003 (ip), vehicle: Klucel (hydroxypropylcellulose) (HPC).
Setting [8] is: dose: 400.0 mg/kg/injection, schedule: Q04DX003 (ip), vehicle: Klucel (hydroxypropylcellulose) (HPC).
Where [9] appears, read: dose: 60.0 mg/kg/injection, schedule: Q01DX005 (ip), vehicle: saline with Tween-80.
Setting [10] is: dose: 120.0 mg/kg/injection, schedule: Q01DX005 (ip), vehicle: saline with Tween-80.
[11] abbreviates: dose: 240.0 mg/kg/injection, schedule: Q01DX005 (ip), vehicle: saline with Tween-80.

Where “and” joins values, the source holds several entries; their conditions need not be identical. Equal entries are not always repeated. Inconclusive results and toxic doses are left out.

Turning to `O=C1C2CCCN2C(=S)N1c1ccccc1` (configuration not stated), the T/C was 96 % of control (dose: 60.0 mg/kg/injection, schedule: Q01DX005 (ip), vehicle: Klucel (hydroxypropylcellulose) (HPC)); 91 % of control (dose: 120.0 mg/kg/injection, schedule: Q01DX005 (ip), vehicle: Klucel (hydroxypropylcellulose) (HPC)); 94 % of control (dose: 240.0 mg/kg/injection, schedule: Q01DX005 (ip), vehicle: Klucel (hydroxypropylcellulose) (HPC)).

On to `COC1C(COC(=O)c2ccccc2)OC(OC(C)=O)C1OC(C)=O` (configuration not stated), for which the T/C runs as follows: (dose: 50.0 mg/kg/injection, schedule: Q01DX005 (ip), vehicle: saline with Tween-80) 94 % of control; (dose: 100.0 mg/kg/injection, schedule: Q01DX005 (ip), vehicle: saline with Tween-80) 96 % of control; (dose: 200.0 mg/kg/injection, schedule: Q01DX005 (ip), vehicle: saline with Tween-80) 100 % of control.

Regarding `O=C(O)CS(=O)(=O)Cc1ccc(Cl)cc1Cl`, the T/C is 103 % of control (dose: 60.0 mg/kg/injection, schedule: Q01DX005 (ip), vehicle: suspension in saline); 112 % of control (dose: 120.0 mg/kg/injection, schedule: Q01DX005 (ip), vehicle: suspension in saline); 96 % of control (dose: 240.0 mg/kg/injection, schedule: Q01DX005 (ip), vehicle: suspension in saline).

For the compound `C(=N\N1CN(/N=C/c2ccccc2)C(c2ccccc2)C1c1ccccc1)/c1ccccc1` (configuration not stated), the T/C runs as follows: under setting [1], 89 % of control; under setting [2], 99 % of control; under setting [3], 99 % of control and 97 % of control; under setting [4], 99 % of control; under setting [5], 108 % of control.

As for `COc1cccc2c1C(=O)c1c(O)c3c(c(O)c1C2=O)CC(O)(C(C)=O)CC3OC1CC(NC(=O)C(N)CCCCN)C(O)C(C)O1` (configuration not stated), the T/C by setting is: (dose: 2.5 mg/kg/injection, schedule: Q04DX003 (ip), vehicle: water) 101 % of control; (dose: 5.0 mg/kg/injection, schedule: Q04DX003 (ip), vehicle: water) 101 % of control and 103 % of control; (dose: 10.0 mg/kg/injection, schedule: Q04DX003 (ip), vehicle: distilled water + Tween-80) 95 % of control; (dose: 10.0 mg/kg/injection, schedule: Q04DX003 (ip), vehicle: water) 101 % of control and 109 % of control; (dose: 20.0 mg/kg/injection, schedule: Q04DX003 (ip), vehicle: distilled water + Tween-80) 96 % of control; (dose: 20.0 mg/kg/injection, schedule: Q04DX003 (ip), vehicle: water) 109 % of control and 118 % of control. The T/C is 105 % of control (dose: 40.0 mg/kg/injection, schedule: Q04DX003 (ip), vehicle: distilled water + Tween-80); 106 % of control and 122 % of control (dose: 40.0 mg/kg/injection, schedule: Q04DX003 (ip), vehicle: water); 112 % of control (dose: 80.0 mg/kg/injection, schedule: Q04DX003 (ip), vehicle: distilled water + Tween-80); 118 % of control (dose: 80.0 mg/kg/injection, schedule: Q04DX003 (ip), vehicle: water).

Regarding `Cc1ccc2[nH]c(C)c(C(=O)c3cccnc3)c2c1`, the T/C was 92 % of control under setting [6], 91 % of control under setting [7] and 110 % of control under setting [8].

Consider `COc1ccc2oc3cc4c(c(O)c3c(=O)c2c1CC=C(C)C)C=CC(C)(C)O4`, for which the T/C was 88 % of control under setting [3], 86 % of control under setting [4] and 87 % of control under setting [5].

In the case of `O=C(C[n+]1ccc2ccccc2c1)c1ccc(-c2ccccc2)cc1`, the T/C runs as follows: (dose: 12.5 mg/kg/injection, schedule: Q01DX009 (ip), vehicle: Klucel (hydroxypropylcellulose) (HPC)) 118 % of control; (dose: 25.0 mg/kg/injection, schedule: Q01DX009 (ip), vehicle: Klucel (hydroxypropylcellulose) (HPC)) 98 % of control and 116 % of control; (dose: 50.0 mg/kg/injection, schedule: Q01DX009 (ip), vehicle: Klucel (hydroxypropylcellulose) (HPC)) 101 % of control and 115 % of control; (dose: 100.0 mg/kg/injection, schedule: Q01DX009 (ip), vehicle: Klucel (hydroxypropylcellulose) (HPC)) 101 % of control and 122 % of control.

In the case of `COC(=O)/C=C(\C)Oc1c(Cl)c(Cl)c(Cl)c(Cl)c1Cl`, the T/C is 110 % of control (dose: 50.0 mg/kg/injection, schedule: Q04DX003 (ip), vehicle: saline sonified); 91 % of control (dose: 100.0 mg/kg/injection, schedule: Q01DX009 (ip), vehicle: saline with Tween-80); 110 % of control (dose: 100.0 mg/kg/injection, schedule: Q04DX003 (ip), vehicle: saline sonified); 100 % of control (dose: 200.0 mg/kg/injection, schedule: Q01DX009 (ip), vehicle: saline with Tween-80); 110 % of control (dose: 200.0 mg/kg/injection, schedule: Q04DX003 (ip), vehicle: saline sonified); 91 % of control (dose: 400.0 mg/kg/injection, schedule: Q01DX009 (ip), vehicle: saline with Tween-80).

For `CCNC(=O)NS(=O)(=O)c1ccc(Sc2ccc(C)cc2)nc1`, the T/C was 98 % of control under setting [9], 101 % of control under setting [10] and 94 % of control under setting [11].

For `[NH-][n+]1c2c(nc3ccccc31)-c1cccc3cccc-2c13`, the T/C by setting is: under setting [3], 103 % of control; (dose: 100.0 mg/kg/injection, schedule: Q01DX001 (ip), vehicle: Klucel (hydroxypropylcellulose) (HPC)) 97 % of control; under setting [4], 112 % of control; (dose: 200.0 mg/kg/injection, schedule: Q01DX001 (ip), vehicle: Klucel (hydroxypropylcellulose) (HPC)) 100 % of control; under setting [5], 105 % of control; (dose: 400.0 mg/kg/injection, schedule: Q01DX001 (ip), vehicle: Klucel (hydroxypropylcellulose) (HPC)) 102 % of control.

Take `Cc1nn(C(=O)c2ccncc2)c(C)c1N=Nc1c(C)[nH]n(-c2ccccc2)c1=O`: the T/C under setting [6] was 95 % of control, the T/C under setting [7] is 102 % of control and the T/C under setting [8] is 101 % of control.

In the case of `CSc1ccnc2ccccc12`, the T/C reads like this: (dose: 12.5 mg/kg/injection, schedule: Q01DX009 (ip), vehicle: other) 103 % of control; (dose: 25.0 mg/kg/injection, schedule: Q01DX009 (ip), vehicle: other) 118 % of control; (dose: 50.0 mg/kg/injection, schedule: Q01DX009 (ip), vehicle: other) 114 % of control.

As for `O=S(=O)(Cc1cccs1)c1ncc(Br)cn1`, the T/C under setting [1] is 106 % of control; the T/C under setting [2] was 106 % of control; the T/C under setting [3] was 111 % of control and 113 % of control; the T/C under setting [4] is 117 % of control.

As for `O=C1C2=C(Nc3ccccc3N2)OC1c1ccc(Cl)cc1` (configuration not stated), the T/C (dose: 7.5 mg/kg/injection, schedule: Q01DX005 (ip), vehicle: Klucel (hydroxypropylcellulose) (HPC)) was 103 % of control; the T/C (dose: 15.0 mg/kg/injection, schedule: Q01DX005 (ip), vehicle: Klucel (hydroxypropylcellulose) (HPC)) was 101 % of control; the T/C (dose: 30.0 mg/kg/injection, schedule: Q01DX005 (ip), vehicle: Klucel (hydroxypropylcellulose) (HPC)) was 101 % of control.

Turning to `C[CH2][Ge]([CH2]C)[O][Ge]([CH2]C)[CH2]C.c1cc[c]([Ge]([c]2ccccc2)[c]2ccccc2)cc1.c1cc[c]([Ge]([c]2ccccc2)[c]2ccccc2)cc1`, the T/C was 88 % of control under setting [9], 98 % of control under setting [10] and 98 % of control under setting [11].

For `O=C(/C=C/c1ccc(O)cc1)OCC1OC(Oc2cc(O)c3c(c2)OC(c2ccc(O)cc2)CC3=O)C(O)C(O)C1O` (configuration not stated), the T/C reads like this: (dose: 100.0 mg/kg/injection, schedule: Q04DX002 (ip), vehicle: saline) 107 % of control; (dose: 200.0 mg/kg/injection, schedule: Q04DX002 (ip), vehicle: saline) 94 % of control; (dose: 400.0 mg/kg/injection, schedule: Q04DX002 (ip), vehicle: saline) 107 % of control.

In the case of `O=C(C=C(C(F)(F)F)C(F)(F)F)c1ccccc1Cl`, the T/C by setting is: (dose: 6.25 mg/kg/injection, schedule: Q01DX009 (ip), vehicle: saline with Tween-80) 110 % of control; (dose: 12.5 mg/kg/injection, schedule: Q01DX009 (ip), vehicle: saline with Tween-80) 150 % of control; (dose: 12.5 mg/kg/injection, schedule: Q04DX003 (ip), vehicle: saline with Tween-80) 113 % of control; (dose: 25.0 mg/kg/injection, schedule: Q04DX003 (ip), vehicle: saline with Tween-80) 118 % of control.

For the origin of these results see PubChem BioAssay AID330 (DTP/NCI, 2004).
